Tests used:
[1] = test system: thoracic aorta; experiment: vascular function: Ang I pre-constricted isolated thoracic aorta; conditions: isolated aorta of SD rat, Ang I 10^–2 μM
Protocol: Endothelium-dependent vasorelaxation using aorta was evaluated as previously described ([Liao et al., 2019]). Briefly, after euthanizing the SD rat with sodium pentobarbital (100 mg kg^−1, i.p.) administration in combination with isoflurane inhalation, thoracic aorta (diameter: 150–250 μm, length: 2 mm) was mounted on two tungsten wires and attached to a tension sensor system (ADInstruments). After balancing for 2 h in Krebs’ solution at 37°C, arteries were exposed to 10 µM of phenylephrine (PE, Sigma-Aldrich, St. Louis, MO, United States) twice, followed by a single dose of acetylcholine (Ach, 3 μm, Sigma-Aldrich, St. Louis, MO, United States) to evaluate the integrity of the vessel. Afterward, the vessel was pre-constricted to maximum using AngI (Sigma-Aldrich) at 10^–2 μM and then treated with a series concentration of BAC or A779 (Sigma-Aldrich) or captopril at 10^–6 to 10^–1 μM. Lastly, a cumulative concentration response curve to BAC with A779 (at 10^–2 μM) was performed to assess the endothelium-dependent vasorelaxation.

[2] = biological target: T1, recombinant human ACE (rhACE) (Homo sapiens, UniProt P12821); experiment: SPR assay with rhACE; format: binding; conditions: rhACE on chip, 5% DMSO–1.05× PBS
T1 construct: purchased Proteintech
Protocol: To screen the potential targets of the MDAs in hypertension, a CVDPlatform (www.cbligand.org/CVD) was used as previously reported ([Zhang et al., 2016a]). The results of database screening were verified by virtual docking with Discovery Studio 3.5 (BIOVIA, San Diego, CA, United States) and then validated in the SPR assay. In the SPR assay, a solution of protein standards was prepared, and the concentration of recombinant human ACE (rhACE) protein and rhACE2 (Proteintech, Rosemont, IL, United States) solution was set to 500 μg ml^−1. […] Finally, the level of binding between the proteins and each molecule was determined based on the K d value.

[3] = test system: Ang I; experiment: serum Ang I by ELISA in SHRs after 14-day oral administration; format: in vivo, rat; conditions: oral 14 days
Excerpt: (§1) All three MDAs (BAC, BMC, and BHC) were purchased from Nature-Standard Co., Ltd. (Shanghai, China) and their purities were all over 98%. The anti-hypertensive effects of MDAs were studied in both acute and chronic experiments. The 16-week-old SHRs were used in animal experiments, and each group had six rats. In the acute experiment, drug administration was via i.v. injection. For i.v. injection, the animals were randomly assigned into four groups: vehicle (0.1% DMSO–0.9% salt solution, n = 6), low-dose group (0.6 mg kg^−1 body weight, n = 6), medium-dose group (2 mg kg^−1 body weight, n = 6), and high-dose group (6 mg kg^−1 body weight, n = 6). The drug was administered using a venous catheter. […] Blood pressure was recorded in real time.
(§2) Blood samples were collected from the left femoral artery of rats at the end point, followed by centrifugation at 1,000 × g for 15 min at 4°C. […] The concentrations of circulating ACE, ACE2, Ang I, Ang II, Ang (1–7), TNF-α, and IL-6 in serum were measured using the ELISA kits [ACE, cat#xy-R2401c, X-Y Biotechnology, Shanghai, China; ACE2, cat#xy-ACE2-Ra, X-Y Biotechnology; Ang I, cat#xy-E12541, X-Y Biotechnology; Ang II, cat#xy-R1430c, X-Y Biotechnology; Ang (1–7), cat#xy-Ang1-7-Ra, X-Y Biotechnology; TNF-α, cat#GM1149, Servicebio, Shanghai, China; IL-6, cat#GM1154, Servicebio] according to the manufacturer’s instructions. […]

[4] = test system: TNF-α; experiment: serum TNF-α by ELISA in SHRs; format: in vivo, rat; conditions: oral 14 days
Excerpt: as §1, §2

T1 sequence (P12821 30-1306): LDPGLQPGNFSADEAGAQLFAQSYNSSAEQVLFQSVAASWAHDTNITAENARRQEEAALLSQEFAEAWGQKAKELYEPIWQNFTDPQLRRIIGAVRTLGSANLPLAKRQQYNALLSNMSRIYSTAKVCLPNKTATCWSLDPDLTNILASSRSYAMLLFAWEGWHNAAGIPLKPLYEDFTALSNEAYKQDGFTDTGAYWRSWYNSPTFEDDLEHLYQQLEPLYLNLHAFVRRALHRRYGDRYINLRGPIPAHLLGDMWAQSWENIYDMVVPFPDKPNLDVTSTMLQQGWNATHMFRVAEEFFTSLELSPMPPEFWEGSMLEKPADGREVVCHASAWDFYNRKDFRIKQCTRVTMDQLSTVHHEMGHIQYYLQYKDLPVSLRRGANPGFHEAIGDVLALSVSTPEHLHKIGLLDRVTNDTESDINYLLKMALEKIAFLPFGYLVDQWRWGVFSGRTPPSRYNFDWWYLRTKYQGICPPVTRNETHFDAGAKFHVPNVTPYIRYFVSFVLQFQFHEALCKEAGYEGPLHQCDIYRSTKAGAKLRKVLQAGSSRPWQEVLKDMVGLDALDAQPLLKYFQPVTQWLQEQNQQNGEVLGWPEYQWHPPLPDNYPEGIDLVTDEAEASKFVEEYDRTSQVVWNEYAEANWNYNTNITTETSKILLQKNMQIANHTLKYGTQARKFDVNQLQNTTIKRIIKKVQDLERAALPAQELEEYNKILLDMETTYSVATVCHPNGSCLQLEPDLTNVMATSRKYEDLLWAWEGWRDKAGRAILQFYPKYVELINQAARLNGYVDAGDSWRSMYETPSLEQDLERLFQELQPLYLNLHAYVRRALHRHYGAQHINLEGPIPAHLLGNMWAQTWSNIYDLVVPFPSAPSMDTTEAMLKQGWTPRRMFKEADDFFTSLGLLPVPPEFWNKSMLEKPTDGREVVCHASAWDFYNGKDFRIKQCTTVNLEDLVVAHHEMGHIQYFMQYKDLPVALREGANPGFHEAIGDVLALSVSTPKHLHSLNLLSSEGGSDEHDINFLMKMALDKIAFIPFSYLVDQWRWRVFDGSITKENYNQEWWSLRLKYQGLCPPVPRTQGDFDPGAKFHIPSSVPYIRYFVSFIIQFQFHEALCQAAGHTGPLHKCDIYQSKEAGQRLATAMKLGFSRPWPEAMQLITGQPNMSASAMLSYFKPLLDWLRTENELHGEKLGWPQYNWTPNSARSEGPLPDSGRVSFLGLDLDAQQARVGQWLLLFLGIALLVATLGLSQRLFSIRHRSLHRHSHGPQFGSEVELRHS

SMILES: CCN1CC2(COC)C(O)CC(OC)C34C5CC6(O)C(OC)C(O)C(O)(C5C6OC(=O)c5ccccc5)C(C(OC)C23)C14 (centres unmarked) [BAC, Benzoylaconitine]
- Ang I-induced vascular constriction ([1]; 10^–6 to 10^–1 μM): attenuate
- attenuation of Ang I-induced vascular constriction in presence of Mas inhibitor A779 ([1]; with A779): abolished
- Kd [2]: 11 µM
- level of Ang I in blood [3]: did not change
- level of TNF-α in serum [4]: reduced
